# From ChEMBL document CHEMBL1201862, “PubChem BioAssay data set” (2004)
# Calls of active or inactive are those of the source.
# Target: Cytochrome P450 3A4 (Homo sapiens, UniProt P08684);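 further: CYP3A4 tested as one member of a cytochrome P450 panel screen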
# Details: not given
# Cytochrome P450 3A4, sequence (P08684 whole entry): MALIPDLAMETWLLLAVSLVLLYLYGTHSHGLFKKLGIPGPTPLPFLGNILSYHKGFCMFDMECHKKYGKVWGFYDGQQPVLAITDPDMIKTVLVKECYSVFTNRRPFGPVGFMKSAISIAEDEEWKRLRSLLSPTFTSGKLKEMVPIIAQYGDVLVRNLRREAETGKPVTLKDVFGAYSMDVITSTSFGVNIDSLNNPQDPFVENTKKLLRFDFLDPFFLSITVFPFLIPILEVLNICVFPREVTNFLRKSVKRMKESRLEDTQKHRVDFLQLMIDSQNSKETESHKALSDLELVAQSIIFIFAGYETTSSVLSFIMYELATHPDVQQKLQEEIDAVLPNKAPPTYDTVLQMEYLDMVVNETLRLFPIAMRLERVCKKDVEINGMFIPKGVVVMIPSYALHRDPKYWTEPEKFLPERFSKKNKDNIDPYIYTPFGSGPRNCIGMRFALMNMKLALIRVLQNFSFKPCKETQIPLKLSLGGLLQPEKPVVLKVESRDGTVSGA
row,Structure (SMILES),AC50
1,O=C(N/N=C/c1ccc(Sc2nc3ccccc3s2)c([N+](=O)[O-])c1)c1ccccn1,3.55 µM (inconclusive)
2,CN(C)c1ncc2nc(-c3ccccc3)c(=O)n(Cc3cccs3)c2n1,15.8 µM (inconclusive)
3,COC(=O)CSC1=C(C#N)C(c2cccc(F)c2)CC(=O)N1 (centres undefined),39.8 µM (inconclusive)
4,COc1ccc(-c2cc(C(F)(F)F)n3ncc(C(=O)NCC4CCCO4)c3n2)cc1OC (centres undefined),3.55 µM (inconclusive)
5,N#CCCn1c(=O)c(-c2cc(F)cc(F)c2)nc2cnc(OCc3ccccc3)nc21,15.8 µM (inconclusive)
6,CCSc1c(C(=O)NC)ccc2c1C(=O)c1ccccc1C2=O,12.6 µM (inconclusive)
7,Cn1c(=O)cnc2cnc(Nc3ccccc3)nc21,25.1 µM (inconclusive)

# Tested on: H4
# Assay: Luminescence Cell-Based Dose Response HTS to Identify Activators of 5'UTR Stem-Loop Driven Prion Protein mRNA Translation in H4 Neuroglioblastoma Cells. [Related pubchem assays: 1829 (Project Summary), 1814 (Primary HTS)]
# Format: functional
# Details: Homo sapiens
row,Structure (SMILES),EC50
1,COc1cccc(-c2csc(NC(=O)Nc3ccccc3)n2)c1,18.9 µM (active)
2,Cc1cccc(CCNc2nc3ccc(C)cc3n3cnnc23)c1,7.16 µM (active)
3,CCn1c(SCC(=O)Nc2ccc(C(C)=O)cc2)nc2nc3c(cc2c1=O)COC(C)(C)C3,12.8 µM (active)

# Tested on: not listed separately
# Assay: inhibitors of intracellular T. cruzi replication, confirmation, NIH3T3 host cells, beta-gal luminescence (AID 2044);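 further: intracellular parasites grown in NIH/3T3 mouse fibroblasts as host cells; luminescent beta-galactosidase reporter signal from transgenic T. cruzi replicating inside host cells; inhibitors lower the luminescence signal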
# Format: functional, cell-based
# Details: not given
row,Structure (SMILES),EC50
1,CCN(Cc1ccccc1)C(c1cccs1)c1nnnn1C1CCCCC1 (centres undefined),3.97 µM (active)

# Tested on: not listed separately
# Assay: NIH-3T3 fibroblast cytotoxicity, dose response, cytotoxicity control, cell-based, fluorescence, Alamar Blue, secondary assay (AID 2327);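 further: NIH-3T3 mouse fibroblasts cultured with fluconazole at 8 µg/mL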
# Format: functional
# Details: not given
row,Structure (SMILES),EC50
1,COc1cc(C2C(C#N)=C(N)N(c3ccc(F)cc3)C3=C2S(=O)(=O)CC3)ccc1O (centres undefined),> 160 µM (inactive)
2,Cc1cc2[nH]c(=O)c(=O)[nH]c2cc1S(=O)(=O)N1CCN(c2ccccc2F)CC1,> 150 µM (inactive)
3,CCCn1c(CC)nc([N+](=O)[O-])c1Sc1ccc(F)cc1,16.3 µM (active)
4,O=C(c1cc2c(s1)-c1ccccc1OC2)N1CCC2(CC1)OCCO2,43.1 µM (active)
5,O=C(CCCl)N(Cc1nc(O)c2ccccc2n1)Cc1cccs1,> 160 µM (inactive)
6,Cc1cccc(Cc2nnc(CCC(=O)N3CCCCC3c3nccs3)o2)c1 (centres undefined),> 160 µM (inactive)
7,CCOc1ccccc1NC(=O)c1cc(S(=O)(=O)N2CCC3(CC2)OCCO3)ccc1F,> 160 µM (inactive)
8,Oc1nc(SCc2ccccc2F)nc2ccccc12,> 150 µM (inactive)
9,CN1CC2([N+](=O)[O-])CC=C(OCCO)C([N+](=O)[O-])(C1)C2 (centres undefined),> 150 µM (inconclusive)
10,Cc1ccc(-c2c[n+](CC(=O)N3c4ccccc4Sc4ccccc43)c3n2CCC3)cc1,> 150 µM (inactive)
11,CCOC(=O)CSc1ccc(C(=O)N2CCN(C)CC2)cc1[N+](=O)[O-],> 160 µM (inactive)
12,Oc1ccc(N2CCN(C(S)=NCCc3ccccc3)CC2)cc1,> 150 µM (inactive)
13,O=c1cc(-c2ccccc2)c2ccc(O)cc2o1,> 160 µM (inconclusive)

# Target: Cytochrome P450 2C19 (Homo sapiens, UniProt P33261)
# Sequence (P33261 whole entry): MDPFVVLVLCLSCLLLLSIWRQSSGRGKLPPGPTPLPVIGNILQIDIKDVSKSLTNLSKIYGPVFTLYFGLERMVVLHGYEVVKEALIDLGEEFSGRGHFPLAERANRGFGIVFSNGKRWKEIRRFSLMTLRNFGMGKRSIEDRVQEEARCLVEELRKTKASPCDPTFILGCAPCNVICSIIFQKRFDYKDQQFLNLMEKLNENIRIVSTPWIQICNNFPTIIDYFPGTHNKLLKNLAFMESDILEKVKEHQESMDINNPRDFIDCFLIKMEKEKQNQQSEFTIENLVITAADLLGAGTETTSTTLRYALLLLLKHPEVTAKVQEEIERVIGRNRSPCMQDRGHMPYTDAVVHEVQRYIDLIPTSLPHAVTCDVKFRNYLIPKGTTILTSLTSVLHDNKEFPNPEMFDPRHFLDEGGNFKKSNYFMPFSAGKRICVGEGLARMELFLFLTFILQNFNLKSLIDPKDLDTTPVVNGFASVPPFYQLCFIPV
# Assay: Cytochrome panel assay with activity outcomes. Panel member name: p450-cyp2c19 Compounds with AC50 equal or less than 10 uM are considered active
# Format: functional
# Details: read-out: AC50
row,Structure (SMILES),AC50
1,CCCC[C@H]1C(=O)N(c2ccccc2)N(c2ccc(O)cc2)C1=O,15.8 µM (inconclusive)
2,O=C(N/N=C/c1ccc(Sc2nc3ccccc3s2)c([N+](=O)[O-])c1)c1ccccn1,7.08 µM (inconclusive)
3,COc1ccc(-c2cc(C(F)(F)F)n3ncc(C(=O)NCC4CCCO4)c3n2)cc1OC (centres undefined),14.1 µM (inconclusive)
4,O=C(O)/C=C\c1c2ccc(=O)c(O)c-2oc2c(O)c(O)ccc12,3.16 µM (inconclusive)
5,CCSc1c(C(=O)NC)ccc2c1C(=O)c1ccccc1C2=O,28.2 µM (inconclusive)
6,Cn1c(=O)cnc2cnc(Nc3ccccc3)nc21,7.94 µM (inconclusive)

# Tested on: not listed separately
# Assay: cytotoxicity toward NIH3T3 fibroblasts, dose response, counter-screen, cell-based, ATP luminescence, mouse fibroblasts (AID 2010);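 further: cells exposed to compound for about 90 hours before reading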
# Format: functional
# Details: not given
row,Structure (SMILES),EC50
1,CCN(Cc1ccccc1)C(c1cccs1)c1nnnn1C1CCCCC1 (centres undefined),16.3 µM (active)

# Target: T1, Cytochrome P450 1A2 (Homo sapiens, UniProt P05177);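 further: PubChem cytochrome P450 panel assay, CYP1A2 panel member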
# T1 sequence (P05177 whole entry): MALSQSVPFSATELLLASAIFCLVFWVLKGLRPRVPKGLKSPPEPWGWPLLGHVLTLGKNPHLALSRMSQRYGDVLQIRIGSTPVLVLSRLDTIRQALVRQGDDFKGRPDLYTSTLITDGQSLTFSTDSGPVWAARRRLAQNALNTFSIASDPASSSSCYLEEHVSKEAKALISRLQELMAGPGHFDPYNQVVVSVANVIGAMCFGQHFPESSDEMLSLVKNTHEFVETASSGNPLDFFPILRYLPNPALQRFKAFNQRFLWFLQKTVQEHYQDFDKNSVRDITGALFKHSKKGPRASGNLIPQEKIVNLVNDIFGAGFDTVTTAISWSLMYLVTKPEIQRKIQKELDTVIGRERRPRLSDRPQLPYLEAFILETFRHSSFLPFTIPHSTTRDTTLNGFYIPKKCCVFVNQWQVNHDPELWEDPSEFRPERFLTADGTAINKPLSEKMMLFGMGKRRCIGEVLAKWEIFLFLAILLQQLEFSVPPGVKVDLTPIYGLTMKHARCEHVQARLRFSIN
# Details: not given
row,Structure (SMILES),AC50
1,CCCC[C@H]1C(=O)N(c2ccccc2)N(c2ccc(O)cc2)C1=O,0.001 µM (inconclusive)
2,COc1ccc(-c2cc(C(F)(F)F)n3ncc(C(=O)NCC4CCCO4)c3n2)cc1OC (centres undefined),5.01 µM (inconclusive)

# Tested on: INS1
# Assay: beta cell apoptosis inhibitors, cytokine rescue, dose response, luminescence, retest (AID 449756);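 further: cell death triggered by IL-1 beta plus TNF-alpha plus IFN-gamma mixture; protective hits raise ATP signal compared with cytokine alone wells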
# Format: functional, cell-based
# Details: Rattus norvegicus
row,Structure (SMILES),AC50
1,CCN(Cc1ccccc1)C(c1cccs1)c1nnnn1C1CCCCC1 (centres undefined),9.27 µM (active)

# Tested on: not listed separately
# Assay: C. albicans growth with fluconazole, confirmation, fluorescence, retest (AID 2467)
# Format: functional, cell-based
# Details: not given
row,Structure (SMILES),EC50
1,COc1cc(C2C(C#N)=C(N)N(c3ccc(F)cc3)C3=C2S(=O)(=O)CC3)ccc1O (centres undefined),> 38 µM (not active)
2,Cc1cc2[nH]c(=O)c(=O)[nH]c2cc1S(=O)(=O)N1CCN(c2ccccc2F)CC1,> 38 µM (not active)
3,CCCn1c(CC)nc([N+](=O)[O-])c1Sc1ccc(F)cc1,> 38 µM (not active)
4,O=C(c1cc2c(s1)-c1ccccc1OC2)N1CCC2(CC1)OCCO2,2.9 µM (active)
5,O=C(CCCl)N(Cc1nc(O)c2ccccc2n1)Cc1cccs1,> 38 µM (not active)
6,Cc1cccc(Cc2nnc(CCC(=O)N3CCCCC3c3nccs3)o2)c1 (centres undefined),> 38 µM (not active)
7,CCOc1ccccc1NC(=O)c1cc(S(=O)(=O)N2CCC3(CC2)OCCO3)ccc1F,> 38 µM (not active)
8,Oc1nc(SCc2ccccc2F)nc2ccccc12,1.26 µM (active)
9,CN1CC2([N+](=O)[O-])CC=C(OCCO)C([N+](=O)[O-])(C1)C2 (centres undefined),> 38 µM (not active)
10,Cc1ccc(-c2c[n+](CC(=O)N3c4ccccc4Sc4ccccc43)c3n2CCC3)cc1,2.77 µM (active)
11,CCOC(=O)CSc1ccc(C(=O)N2CCN(C)CC2)cc1[N+](=O)[O-],> 38 µM (not active)
12,Oc1ccc(N2CCN(C(S)=NCCc3ccccc3)CC2)cc1,0.177 µM (active)
13,O=c1cc(-c2ccccc2)c2ccc(O)cc2o1,2.12 µM (active)

# Tested on: not listed separately
# Assay: Luminescence Cell-Based Dose Confirmation HTS to Identify Activators of 5'UTR Stem-Loop Driven Alpha-Synuclein mRNA Translation in H4 Neuroglioblastoma Cells. [Related pubchem assays: 1829 (Project Summary), 1814 (Primary HTS)]
# Format: functional
# Details: not given
row,Structure (SMILES),EC50
1,COc1cccc(-c2csc(NC(=O)Nc3ccccc3)n2)c1,> 120 µM (not active)
2,Cc1cccc(CCNc2nc3ccc(C)cc3n3cnnc23)c1,0.258 µM (active)
3,CCn1c(SCC(=O)Nc2ccc(C(C)=O)cc2)nc2nc3c(cc2c1=O)COC(C)(C)C3,> 120 µM (not active)

# Tested on: not listed separately
# Assay: Luminescence Cell-Based Dose Response HTS to Identify Activators of Luciferase Translation or Activity in H4 […] Cells. [Related pubchem assays: 1829 (Project Summary), 1814 (Primary HTS)]
# Format: functional
# Details: not given
row,Structure (SMILES),EC50
1,COc1cccc(-c2csc(NC(=O)Nc3ccccc3)n2)c1,11.1 µM (active)
2,Cc1cccc(CCNc2nc3ccc(C)cc3n3cnnc23)c1,33.2 µM (active)
3,CCn1c(SCC(=O)Nc2ccc(C(C)=O)cc2)nc2nc3c(cc2c1=O)COC(C)(C)C3,32.9 µM (active)

# Target: Cytochrome P450 2C9 (Homo sapiens, UniProt P11712)
# Sequence (P11712 whole entry): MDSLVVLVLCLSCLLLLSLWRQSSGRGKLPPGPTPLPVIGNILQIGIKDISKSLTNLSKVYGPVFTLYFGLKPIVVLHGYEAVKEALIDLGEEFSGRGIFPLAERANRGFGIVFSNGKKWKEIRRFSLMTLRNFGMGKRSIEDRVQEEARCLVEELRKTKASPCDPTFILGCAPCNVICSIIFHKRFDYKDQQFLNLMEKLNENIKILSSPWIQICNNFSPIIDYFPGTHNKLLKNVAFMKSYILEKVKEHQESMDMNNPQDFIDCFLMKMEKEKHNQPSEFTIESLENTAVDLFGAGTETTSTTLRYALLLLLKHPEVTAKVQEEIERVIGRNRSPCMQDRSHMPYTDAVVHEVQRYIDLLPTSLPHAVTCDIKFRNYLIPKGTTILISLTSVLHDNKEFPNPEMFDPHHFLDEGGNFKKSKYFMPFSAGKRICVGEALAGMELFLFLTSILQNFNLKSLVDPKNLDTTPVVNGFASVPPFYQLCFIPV
# Details: not given
row,Structure (SMILES),AC50
1,CCCC[C@H]1C(=O)N(c2ccccc2)N(c2ccc(O)cc2)C1=O,12.6 µM (inconclusive)
2,O=C(N/N=C/c1ccc(Sc2nc3ccccc3s2)c([N+](=O)[O-])c1)c1ccccn1,0.00562 µM (inconclusive)
3,CN(C)c1ncc2nc(-c3ccccc3)c(=O)n(Cc3cccs3)c2n1,10 µM (inconclusive)
4,COC(=O)CSC1=C(C#N)C(c2cccc(F)c2)CC(=O)N1 (centres undefined),0.0282 µM (inconclusive)
5,COc1ccc(-c2cc(C(F)(F)F)n3ncc(C(=O)NCC4CCCO4)c3n2)cc1OC (centres undefined),7.94 µM (inconclusive)
6,N#CCCn1c(=O)c(-c2cc(F)cc(F)c2)nc2cnc(OCc3ccccc3)nc21,3.16 µM (inconclusive)
7,O=C(O)/C=C\c1c2ccc(=O)c(O)c-2oc2c(O)c(O)ccc12,7.94 µM (inconclusive)
8,CCSc1c(C(=O)NC)ccc2c1C(=O)c1ccccc1C2=O,10 µM (inconclusive)
9,Cn1c(=O)cnc2cnc(Nc3ccccc3)nc21,25.1 µM (inconclusive)

# Target: T2, Heat shock factor protein 1 (Mus musculus, UniProt P38532)
# T2 sequence (P38532 whole entry): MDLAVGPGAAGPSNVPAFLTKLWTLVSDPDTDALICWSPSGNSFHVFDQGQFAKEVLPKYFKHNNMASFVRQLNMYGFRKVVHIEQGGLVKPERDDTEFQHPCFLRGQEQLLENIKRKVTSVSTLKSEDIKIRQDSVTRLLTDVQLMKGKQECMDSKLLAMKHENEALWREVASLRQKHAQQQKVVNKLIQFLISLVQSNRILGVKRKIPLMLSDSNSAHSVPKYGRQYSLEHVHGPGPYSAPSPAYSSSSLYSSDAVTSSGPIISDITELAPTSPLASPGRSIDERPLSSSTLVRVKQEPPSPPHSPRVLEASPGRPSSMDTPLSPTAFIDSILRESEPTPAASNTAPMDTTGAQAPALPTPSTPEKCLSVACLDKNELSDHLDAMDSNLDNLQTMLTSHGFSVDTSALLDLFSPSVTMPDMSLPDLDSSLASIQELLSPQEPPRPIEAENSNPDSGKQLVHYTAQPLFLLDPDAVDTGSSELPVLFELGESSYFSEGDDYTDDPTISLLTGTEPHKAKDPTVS
# Assay: inhibition of MG132-induced HSE-luciferase signal, confirmation, cell-based, NIH3T3, luminescence, dose retest (AID 2382);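 further: NIH3T3 fibroblasts with HSF1-driven luciferase reporter stressed by proteasome inhibitor MG132; luminescence from HSF1-driven luciferase expression after 8 hours of MG132 stress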
# Format: functional
# Details: not given
row,Structure (SMILES),EC50
1,COc1cccc(-c2csc(NC(=O)Nc3ccccc3)n2)c1,> 195 µM (not active)
2,O=c1cc(-c2ccccc2)c2ccc(O)cc2o1,117 µM (active)
